# Literature values as cited in article PMC9099118 (Clinical and Translational Science, 2022).
# Settings: Genuair multidose DPI, HVs; cited from earlier work
compound,measurement,value
O=C(O[C@H]1C[N+]2(CCCOc3ccccc3)CCC1CC2)C(O)(c1cccs1)c1cccs1 [aclidinium bromide],mean emitted lung dose,approximately 35%
